Data reported in PubChem BioAssay (NCI).
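GI50: concentration for 50% inhibition of growth. TGI: total growth inhibition.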

Experiments:
Test in all cases: DTP human tumour cell line panel, 384-well format
[1] = test system: 786-0 renal
[2] = test system: A498 renal
[3] = test system: A549 NSCLC
[4] = test system: BT-549 breast
[5] = test system: CAKI-1 renal
[6] = test system: CCRF-CEM leukemia
[7] = test system: COLO 205 colon
[8] = test system: DU-145 prostate
[9] = test system: EKVX NSCLC
[10] = test system: HCC-2998 colon
[11] = test system: HCT-15 colon
[12] = test system: HL-60(TB) leukemia
[13] = test system: HOP-92 NSCLC
[14] = test system: HT29 colon
[15] = test system: K-562 leukemia
[16] = test system: KM12 colon
[17] = test system: M14 melanoma
[18] = test system: MALME-3M melanoma
[19] = test system: MDA-MB-231 breast
[20] = test system: MDA-MB-435 melanoma
[21] = test system: MOLT-4 leukemia
[22] = test system: NCI-H226 lung
[23] = test system: NCI-H23 lung
[24] = test system: NCI-H322M lung
[25] = test system: NCI/ADR-RES ovarian
[26] = test system: OVCAR-4 ovarian
[27] = test system: OVCAR-5 ovarian
[28] = test system: PC-3 prostate
[29] = test system: RPMI-8226 leukemia
[30] = test system: RXF 393 renal
[31] = test system: SF-268 CNS
[32] = test system: SF-295 CNS
[33] = test system: SF-539 CNS
[34] = test system: SK-MEL-2 melanoma
[35] = test system: SK-MEL-28 melanoma
[36] = test system: SK-MEL-5 melanoma
[37] = test system: SK-OV-3 ovarian
[38] = test system: SN12C renal
[39] = test system: SNB-19 CNS
[40] = test system: SR leukemia
[41] = test system: SW-620 colon
[42] = test system: T-47D breast
[43] = test system: TK-10 renal
[44] = test system: U251 glioblastoma
[45] = test system: UACC-257 melanoma
[46] = test system: UACC-62 melanoma
[47] = test system: UO-31 renal

Compound: C[C@]12CCCN1CC1=NNC(=O)c3cc(F)cc4[nH]c2c1c34
- GI50 [1]: 29 µM
- TGI [1]: > 80.9 µM
- GI50 [2]: 18.4 µM
- TGI [2]: 49 µM
- GI50 [3]: 29.1 µM
- TGI [3]: > 100 µM
- GI50 [4]: 16.4 µM
- TGI [4]: 42.2 µM
- GI50 [5]: 18.1 µM
- TGI [5]: 69.4 µM
- GI50 [6]: 14.4 µM
- TGI [6]: 27.8 µM
- GI50 [7]: 17.8 µM
- TGI [7]: 45.1 µM
- GI50 [8]: 27.9 µM
- TGI [8]: 80 µM
- GI50 [9]: 20.2 µM
- TGI [9]: 51.6 µM
- GI50 [10]: 9.2 µM
- TGI [10]: 27.5 µM
- GI50 [11]: 32 µM
- TGI [11]: > 95.3 µM
- GI50 [12]: 15.6 µM
- TGI [12]: 29.1 µM
- GI50 [13]: 18.4 µM
- TGI [13]: > 60.9 µM
- GI50 [14]: 22.8 µM
- TGI [14]: 74.7 µM
- GI50 [15]: 38.6 µM
- TGI [15]: > 100 µM
- GI50 [16]: 13.2 µM
- TGI [16]: 42.3 µM
- GI50 [17]: 18.3 µM
- TGI [17]: 43.4 µM
- GI50 [18]: 34.4 µM
- TGI [18]: 83.6 µM
- GI50 [19]: 13.6 µM
- TGI [19]: 60.1 µM
- GI50 [20]: 42.4 µM
- TGI [20]: > 100 µM
- GI50 [21]: 2.48 µM
- TGI [21]: 10.5 µM
- GI50 [22]: 14.8 µM
- TGI [22]: 50.2 µM
- GI50 [23]: 15.4 µM
- TGI [23]: 35.5 µM
- GI50 [24]: 23.4 µM
- TGI [24]: 52.5 µM
- GI50 [25]: 20.9 µM
- TGI [25]: 75 µM
- GI50 [26]: 26.5 µM
- TGI [26]: 79.4 µM
- GI50 [27]: 17.9 µM
- TGI [27]: 44.5 µM
- GI50 [28]: 20 µM
- TGI [28]: > 80.7 µM
- GI50 [29]: 10.5 µM
- TGI [29]: 22.9 µM
- GI50 [30]: 12.8 µM
- TGI [30]: 30.9 µM
- GI50 [31]: 14.5 µM
- TGI [31]: 31.6 µM
- GI50 [32]: 10.7 µM
- TGI [32]: 51.9 µM
- GI50 [33]: 14.2 µM
- TGI [33]: 33.9 µM
- GI50 [34]: 20.4 µM
- TGI [34]: 41.6 µM
- GI50 [35]: 26.1 µM
- TGI [35]: 81.3 µM
- GI50 [36]: 19.6 µM
- TGI [36]: 36.7 µM
- GI50 [37]: 35.5 µM
- TGI [37]: > 100 µM
- GI50 [38]: 13.1 µM
- TGI [38]: 35 µM
- GI50 [39]: 35.2 µM
- TGI [39]: 97.7 µM
- GI50 [40]: 1.27 µM
- TGI [40]: 2.58 µM
- GI50 [41]: 7.57 µM
- TGI [41]: > 39.2 µM
- GI50 [42]: 31.7 µM
- TGI [42]: > 86.3 µM
- GI50 [43]: 24.1 µM
- TGI [43]: 73.9 µM
- GI50 [44]: 13.6 µM
- TGI [44]: > 79.2 µM
- GI50 [45]: 37.2 µM
- TGI [45]: > 92.2 µM
- GI50 [46]: 11.7 µM
- TGI [46]: 28.1 µM
- GI50 [47]: 27.5 µM
- TGI [47]: 96.1 µM
